According to patent publication US7220732B2, “Compounds useful as photodynamic therapeutic agents” (priority 2002, dated 2007):
Read-outs that look alike come from different tables or passages of the source.

Assays:
HeLa cells = test: Light/dark cytotoxicity study (MTT) in HeLa cells; type: cell-based
Protocol: (§1) MRC5 and HeLa cell cultures were maintained in MEM (minimum essential medium) containing 10% (v/v) foetal calf serum (FCS), 1% (v/v) non-essential amino acids, 2 μg/ml Fungizone (Trade Mark) (amphotericin B), 50 μg/ml penicillin, 50 μg/ml streptomycin, 20 mM HEPES and 1% (v/v) L-Glutamine. Cells were passaged at least twice before use in the cytotoxicity assays.
(§2) Stock haematoporphyrin water-dimethyl sulphoxide (DMSO) (100:1 (v/v)) solutions were diluted with MEM containing 10% FCS. Cells were seeded at 5,000 cells/well in 96-well plates and incubated for 24 hr at 37° C. The 24 hour incubation period was chosen having regard to the slower uptake of haernatoporphyrin in the absence of Cremophor, when compared to the compounds of the present invention in the presence of Cremophor (see below). Cells were then incubated with haematoporphyrin in the dark for 24 hr at 37° C. The haematoporphyrin laden culture medium was then removed by filtration, the cells were washed with PBS and fresh culture medium was added to each well. A 500 W light source, passed through a red glass and water filter barrier, (to ensure cells are irradiated with light of wavelength greater than 570 nm) was used to irradiate the plates for both 15 and 30 min. Following irradiation, the cells were incubated for a further 48 hr at 37° C. before being assessed for cell survival.
(§3) Stock 2a or 2b water-Cremophor EL (Trade Mark—CAS 61791-12-6) (1:250 (v/v)) solutions were diluted with MEM containing 10% FCS. Cells were seeded at 5,000 cells/well in 96-well plates and incubated for 24 hr at 37° C. Cells were then incubated with 2a or 2b in the dark for 3 hr at 37° C. The 3 hour incubation period was chosen to reflect the faster cellular uptake of 2a or 2b in the presence of Cremophor, when compared to the cellular uptake of haematoporphyrins in the absence of Cremophor. The 2a or 2b laden culture medium was then removed by filtration, the cells were washed with PBS and fresh culture medium was added to each well. The plates were then irradiated using a 500 W light source passed through a red glass and water filter barrier, (thereby ensuring cells are irradiated with light of wavelength greater than 570 nm) for both 15 and 30 min.
(§4) Following irradiation, the cells were incubated for a further 48 hr at 37° C. before being assessed for cell survival. The dark toxicity of compounds of the present invention was also assessed in each experiment.
(§5) Cell viability was estimated using the standard MTT (microtiter tetrazolium) assay. This assay measures mitochondrial dehydrogenase activity and is based on the reduction of a soluble yellow tetrazolium salt to a blue, insoluble MTT formazan product by this enzyme. The subsequent colour change produced by viable cells was quantified using a plate reader (VICTOR^2 1420 multilabel HTS counter, Wallac). As mentioned above under the headings “Cytotoxicity”, the cells are incubated at 37° C. for 48 hours, following which the MTT solution was added to the cells at a final concentration of 0.5 mg/ml and incubated for 3 hr at 37° C. The MTT solution was then removed by filtration and 100 μl DMSO was added to each well in order to lyse the cells and release the formazan dye. The plates were read 1 hr later at 540 nm.
(§6) Prism (Trade Mark) […] was used to graph the data obtained from the MTT assays and the uptake/efflux experiments. This programme allows non-linear regression analysis and the generation of sigmoidal dose response curves. Prism (Trade Mark) also automatically calculates EC50 values.
(§7) Light toxicity assays were also carried out as described above under “Assay methods” in HeLa and MRC5 cells for haematoporphyrin (FIGS. 9 and 10), 2a (FIGS. 11 and 12) and 2b (FIGS. 13 and 14).

MRC5 cells = test: Light/dark cytotoxicity study (MTT) in MRC5 cells; type: cell-based
Protocol: as §1, §2, §3, §4, §5, §6, §7

[1] = Spectroscopic absorbance properties; type: physicochemical
Excerpt: (§8) The absorption bands of each photosensitiser are relatively insensitive to solvent changes with solutions in water/Cremophor resulting in a further bathochromic shift of ˜10 nm (Table 1). Excitation of chloroform solutions of the 2a and 4a at 635 nm gave a fluorescence band at 672 and 673 nm respectively (FIG. 2, Table 2). […] The reduction in fluorescence quantum yield in the series would imply more efficient population of the triplet excited state which would benefit singlet oxygen production. The ability of 2 and 4 to produce singlet oxygen would be a prerequisite to them being potential PDT agents.

[2] = Fluorescence emission and fluorescence quantum yield; type: physicochemical; conditions: for Φf (fluorescence quantum yield): relative to magnesium tetra-tert-butylphthalocyanine in CHCl3, room temperature
Excerpt: as §8

[3] = Water/Cremophor (100:1), room temperature
[4] = CHCl3, room temperature, excitation at 635 nm

| Compound | EC50 (HeLa cells; Homo sapiens, light or radiation study, 0 J/cm^2 light (no light), read-out: EC50 (dark toxicity)) [µM] | EC50 (HeLa cells; Homo sapiens, light or radiation study, 0.25 h, 8 J/cm^2 light (15 mins from a 500 W light source), read-out: EC50) [µM] | EC50 (HeLa cells; Homo sapiens, light or radiation study, 0.5 h, 16 J/cm^2 light (30 mins from a 500 W light source), read-out: EC50) [µM] | EC50 (MRC5 cells; Homo sapiens, light or radiation study, 0.25 h, MRC5, 8 J/cm^2 light (15 mins from a 500 W light source), read-out: EC50) [µM] | EC50 (MRC5 cells; Homo sapiens, light or radiation study, 0.5 h, MRC5, 16 J/cm^2 light (30 mins from a 500 W light source), read-out: EC50) [µM] | EC50 (MRC5 cells; Homo sapiens, light or radiation study, MRC5, 0 J/cm^2 light (no light), read-out: EC50 (dark toxicity)) [µM] | fwhm (full width at half maximum) ([1]; CHCl3, room temperature) [nm] | ε (molar extinction coefficient) ([1]; CHCl3, room temperature) | λmax (absorbance) ([1]; CHCl3, room temperature) [nm] | fwhm (full width at half maximum) [1, 3] [nm] | λmax (absorbance) [1, 3] [nm] | λ em (fluorescence band) [2, 4] [nm] | λ em (fluorescence band) [2, 3] [nm] | Φf (fluorescence quantum yield) [2] | EC50 (HeLa cells; 0 J/cm^2 light (no light), read-out: EC50 (dark toxicity)) [µM] | EC50 (HeLa cells; 8 J/cm^2 light (15 mins from a 500 W light source), read-out: EC50) [µM] | EC50 (HeLa cells; 16 J/cm^2 light (30 mins from a 500 W light source), read-out: EC50) [µM] | EC50 (dark toxicity) (MRC5 cells; MRC5, 0 J/cm^2 light (no light)) | EC50 (MRC5 cells; MRC5, 8 J/cm^2 light (15 mins from a 500 W light source), read-out: EC50) [µM] | EC50 (MRC5 cells; MRC5, 16 J/cm^2 light (30 mins from a 500 W light source), read-out: EC50) [µM] |
| --- | --- | --- | --- | --- | --- | --- | --- | --- | --- | --- | --- | --- | --- | --- | --- | --- | --- | --- | --- | --- |
| CC1=C(CCC(=O)O)c2cc3[nH]c(cc4nc(cc5[nH]c(cc1n2)c(C)c5C(C)O)C(C)=C4C(C)O)c(C)c3CCC(=O)O (stereo not shown) [haematoporphyrin, reference compound] | 77 | 15 | 16 | 42 | 29 | 1400 |  |  |  |  |  |  |  |  |  |  |  |  |  |  |
| COc1ccc(C2=[N+]3C(=Nc4c(-c5ccccc5)c(Br)c(-c5ccc(OC)cc5)n4[B-]3(F)F)C(c3ccccc3)=C2Br)cc1 [Compound 4b] |  |  |  |  |  |  | 57 | 75,000 M^−1cm^−1 | 679 | 86 | 685 | 714 | 719 | 0.10 |  |  |  |  |  |  |
| COc1ccc(C2=[N+]3C(=Nc4c(-c5ccccc5)cc(-c5ccc(OC)cc5)n4[B-]3(F)F)C(c3ccccc3)=C2)cc1 [Compound 2b] |  |  |  |  |  |  | 55 | 85,000 M^−1cm^−1 | 688 | 57 | 696 | 715 | 727 | 0.36 | 62 | 53 | 25 | un-measurable | 220 | 22 |
| F[B-]1(F)n2c(c(-c3ccccc3)c(Br)c2-c2ccccc2)N=C2C(c3ccccc3)=C(Br)C(c3ccccc3)=[N+]21 [Compound 4a] |  |  |  |  |  |  | 47 | 79,000 M^−1cm^−1 | 650 | 57 | 651 | 673 | 679 | 0.012 |  |  |  |  |  |  |
| F[B-]1(F)n2c(-c3ccccc3)cc(-c3ccc(Br)cc3)c2N=C2C(c3ccc(Br)cc3)=CC(c3ccccc3)=[N+]21 [Compound 5a] |  |  |  |  |  |  |  | 74,000 M^−1cm^−1 | 658 |  | 667 | 680 |  |  |  |  |  |  |  |  |
